Measured values taken from US9399626B2, “2-thiopyrimidinones” (Pfizer Inc., priority 2011, dated 2016).

Target: T1, MPO (purified from human polynuclear leukocytes) (Homo sapiens, UniProt P05164)
T1 construct: purified from human polynuclear leukocytes; purchased Calbiochem/EMD Biosciences; host or cells: human polynuclear leukocytes (natural source)
Test: MPO Amplex Red Activity Assay
Format: biochemical
Details: Table 1A, 2 μM H2O2, pH 7.4
Method in brief: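 Potency is given as kinact/KI: kobs values from 600 s progress curves, minus the uninhibited rate, are fit against inhibitor concentration. Reactions use 2 μM H2O2, 30 μM Amplex Red, pH 7.4 phosphate buffer with NaCl, DTPA and 2% DMSO, started with […] human MPO. Readout is resorufin fluorescence, catalase background subtracted.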

T1 sequence (P05164 279-745 limits assumed): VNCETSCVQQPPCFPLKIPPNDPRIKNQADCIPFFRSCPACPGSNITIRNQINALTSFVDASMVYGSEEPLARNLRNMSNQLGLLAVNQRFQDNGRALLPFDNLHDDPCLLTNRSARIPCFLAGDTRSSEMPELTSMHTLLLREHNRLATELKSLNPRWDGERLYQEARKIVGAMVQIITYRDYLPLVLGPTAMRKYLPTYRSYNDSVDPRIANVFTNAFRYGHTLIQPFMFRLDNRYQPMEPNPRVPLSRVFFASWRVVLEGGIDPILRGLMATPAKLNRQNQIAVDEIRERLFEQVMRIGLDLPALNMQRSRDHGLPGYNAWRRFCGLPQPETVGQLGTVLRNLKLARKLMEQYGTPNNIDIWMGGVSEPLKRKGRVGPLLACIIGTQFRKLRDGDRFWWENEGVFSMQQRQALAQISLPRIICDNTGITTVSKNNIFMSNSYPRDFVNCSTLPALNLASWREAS
T1 sequence (P05164 165-273 limits assumed): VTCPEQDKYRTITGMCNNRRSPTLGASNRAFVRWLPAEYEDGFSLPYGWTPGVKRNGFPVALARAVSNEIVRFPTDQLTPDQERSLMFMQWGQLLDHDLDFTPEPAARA

| Structure (SMILES) | MPO kinact/Ki |
| --- | --- |
| COc1ccc(-c2cc(=O)[nH]c(=S)n2CC(=O)N[C@H]2CCNC2)c(OC)c1 [Example 393, 2-[6-(2,4-dimethoxyphenyl)-4-oxo-2-thioxo-3,4-dihydropyrimidin-1(2H)-yl]-N-[(3S)-pyrrolidin-3-yl]acetamide] | 13600 1/s per M |
| COc1ccc(-c2cc(=O)[nH]c(=S)n2CC(=O)N2CCNCC2)c(OC)c1 [Example 397, 6-(2,4-dimethoxyphenyl)-1-[2-oxo-2-(piperazin-1-yl)ethyl]-2-thioxo-2,3-dihydropyrimidin-4(1H)-one] | 4050 1/s per M |
| COc1ccc(-c2cc(=O)[nH]c(=S)n2CC(=O)NCCNC(=O)[C@H](C)N)c(OC)c1 [Example 399, N-[2-({[6-(2,4-dimethoxyphenyl)-4-oxo-2-thioxo-3,4-dihydropyrimidin-1(2H)-yl]acetyl}amino)ethyl]-L-alaninamide] | 4860 1/s per M |
| COc1ccc(-c2cc(=O)[nH]c(=S)n2CCCN)c(OCCO)c1 [Example 402, 1-(3-aminopropyl)-6-[2-(2-hydroxyethoxy)-4-methoxyphenyl]-2-thioxo-2,3-dihydropyrimidin-4(1H)-one] | 4810 1/s per M |
| COc1ccc(-c2cc(=O)[nH]c(=S)n2CCCNC(=N)N)c(OCCO)c1 [Example 403, 1-(3-{6-[2-(2-hydroxyethoxy)-4-methoxyphenyl]-4-oxo-2-thioxo-3,4-dihydropyrimidin-1(2H)-yl}propyl)guanidine] | 13300 1/s per M |
| COc1ccc(-c2cc(=O)[nH]c(=S)n2CC(=O)NCCN)c(OCCO)c1 [Example 404, N-(2-aminoethyl)-2-{6-[2-(2-hydroxyethoxy)-4-methoxyphenyl]-4-oxo-2-thioxo-3,4-dihydropyrimidin-1(2H)-yl}acetamide] | 6200 1/s per M |
| NCCNC(=O)Cn1c(-c2cc(F)ccc2OCCO)cc(=O)[nH]c1=S [Example 405, N-(2-aminoethyl)-2-{6-[5-fluoro-2-(2-hydroxyethoxy)phenyl]-4-oxo-2-thioxo-3,4-dihydropyrimidin-1(2H)-yl}acetamide] | 5970 1/s per M |
| NCCCn1c(-c2cc(F)ccc2OCCO)cc(=O)[nH]c1=S [Example 406, 1-(3-aminopropyl)-6-[5-fluoro-2-(2-hydroxyethoxy)phenyl]-2-thioxo-2,3-dihydropyrimidin-4(1H)-one] | 4480 1/s per M |
| N=C(N)NCCCn1c(-c2cc(F)ccc2OCCO)cc(=O)[nH]c1=S [Example 407, 1-(3-{6-[5-fluoro-2-(2-hydroxyethoxy)phenyl]-4-oxo-2-thioxo-3,4-dihydropyrimidin-1(2H)-yl}propyl)guanidine] | 18700 1/s per M |
| COc1ccc(-c2cc(=O)[nH]c(=S)n2CCC#N)c(OC)c1 [Example 408, 3-[6-(2,4-dimethoxyphenyl)-4-oxo-2-thioxo-3,4-dihydropyrimidin-1(2H)-yl]propanenitrile] | 9890 1/s per M |
| COc1ccc(-c2cc(=O)[nH]c(=S)n2CCO)c(OCCO)c1 [Example 409, 6-[2-(2-hydroxyethoxy)-4-methoxyphenyl]-1-(2-hydroxyethyl)-2-thioxo-2,3-dihydropyrimidin-4(1H)-one] | 18000 1/s per M |
| O=c1cc(-c2cc(F)ccc2OCCO)n(CCO)c(=S)[nH]1 [Example 411, 6-[5-fluoro-2-(2-hydroxyethoxy)phenyl]-1-(2-hydroxyethyl)-2-thioxo-2,3-dihydropyrimidin-4(1H)-one] | 15000 1/s per M |
| O=c1cc(-c2ccc(F)cc2OCCO)n(CCO)c(=S)[nH]1 [Example 413, 6-[4-fluoro-2-(2-hydroxyethoxy)phenyl]-1-(2-hydroxyethyl)-2-thioxo-2,3-dihydropyrimidin-4(1H)-one] | 6560 1/s per M |
| NCCNC(=O)Cn1c(-c2ccc(F)cc2OCCO)cc(=O)[nH]c1=S [Example 415, N-(2-aminoethyl)-2-{6-[4-fluoro-2-(2-hydroxyethoxy)phenyl]-4-oxo-2-thioxo-3,4-dihydropyrimidin-1(2H)-yl}acetamide] | 3910 1/s per M |
| COc1ccc(F)cc1-c1cc(=O)[nH]c(=S)n1CCONC(=N)N [Example 419, 1-{2-[6-(5-fluoro-2-methoxyphenyl)-4-oxo-2-thioxo-3,4-dihydropyrimidin-1(2H)-yl]ethoxy}guanidine] | 1200 1/s per M |

Continued, values first:

| MPO kinact/Ki | Structure (SMILES) |
| --- | --- |
| 3480 1/s per M | CNCCNC(=O)Cn1c(-c2ccc(OC)cc2OC)cc(=O)[nH]c1=S [Example 391, 2-[6-(2,4-dimethoxyphenyl)-4-oxo-2-thioxo-3,4-dihydropyrimidin-1(2H)-yl]-N-[2-(methylamino)ethyl]acetamide] |
| 5830 1/s per M | COc1ccc(-c2cc(=O)[nH]c(=S)n2CC(=O)NCCN(C)C)c(OC)c1 [Example 392, 2-[6-(2,4-dimethoxyphenyl)-4-oxo-2-thioxo-3,4-dihydropyrimidin-1(2H)-yl]-N-[2-(dimethylamino)ethyl]acetamide] |
| 4020 1/s per M | COc1ccc(-c2cc(=O)[nH]c(=S)n2CC(=O)N[C@@H](C)CN)c(OC)c1 [Example 394, N-[(2S)-1-aminopropan-2-yl]-2-[6-(2,4-dimethoxyphenyl)-4-oxo-2-thioxo-3,4-dihydropyrimidin-1(2H)-yl]acetamide] |
| 6980 1/s per M | COc1ccc(-c2cc(=O)[nH]c(=S)n2CC(=O)NC[C@@H](C)N)c(OC)c1 [Example 395, N-[(2R)-2-aminopropyl]-2-[6-(2,4-dimethoxyphenyl)-4-oxo-2-thioxo-3,4-dihydropyrimidin-1(2H)-yl]acetamide] |
| 10900 1/s per M | COc1ccc(-c2cc(=O)[nH]c(=S)n2CC(=O)NC[C@H](C)N)c(OC)c1 [Example 396, N-[(2S)-2-aminopropyl]-2-[6-(2,4-dimethoxyphenyl)-4-oxo-2-thioxo-3,4-dihydropyrimidin-1(2H)-yl]acetamide] |
| 4780 1/s per M | COc1ccc(-c2cc(=O)[nH]c(=S)n2CC(=O)N2CC[C@H](N)C2)c(OC)c1 [Example 398, 1-{2-[(3S)-3-aminopyrrolidin-1-yl]-2-oxoethyl}-6-(2,4-dimethoxyphenyl)-2-thioxo-2,3-dihydropyrimidin-4(1H)-one] |
| 2650 1/s per M | CNCCN(C)C(=O)Cn1c(-c2ccc(OC)cc2OC)cc(=O)[nH]c1=S [Example 400, 2-[6-(2,4-dimethoxyphenyl)-4-oxo-2-thioxo-3,4-dihydropyrimidin-1(2H)-yl]-N-methyl-N-[2-(methylamino)ethyl]acetamide] |
| 4060 1/s per M | COc1ccc(-c2cc(=O)[nH]c(=S)n2CC(=O)N[C@H](C)CN)c(OC)c1 [Example 401, N-[(2R)-1-aminopropan-2-yl]-2-[6-(2,4-dimethoxyphenyl)-4-oxo-2-thioxo-3,4-dihydropyrimidin-1(2H)-yl]acetamide] |
| 3150 1/s per M | COc1ccc(-c2cc(=O)[nH]c(=S)n2CC(N)=O)cc1 [Example 410, 2-[6-(4-methoxyphenyl)-4-oxo-2-thioxo-3,4-dihydropyrimidin-1(2H)-yl]acetamide] |
| 3980 1/s per M | NC(=O)Cn1c(-c2cc(F)ccc2OCCO)cc(=O)[nH]c1=S [Example 412, 2-{6-[5-fluoro-2-(2-hydroxyethoxy)phenyl]-4-oxo-2-thioxo-3,4-dihydropyrimidin-1(2H)-yl}acetamide] |
| 1680 1/s per M | NC(=O)Cn1c(-c2ccc(F)cc2OCCO)cc(=O)[nH]c1=S [Example 414, 2-{6-[4-fluoro-2-(2-hydroxyethoxy)phenyl]-4-oxo-2-thioxo-3,4-dihydropyrimidin-1(2H)-yl}acetamide] |
| 4480 1/s per M | COc1cccc(-c2cc(=O)[nH]c(=S)n2CC(N)=O)c1OC [Example 416, 2-[6-(2,3-dimethoxyphenyl)-4-oxo-2-thioxo-3,4-dihydropyrimidin-1(2H)-yl]acetamide] |
| 9280 1/s per M | COc1cc(Cl)ccc1-c1cc(=O)[nH]c(=S)n1CC(N)=O [Example 417, 2-[6-(4-chloro-2-methoxyphenyl)-4-oxo-2-thioxo-3,4-dihydropyrimidin-1(2H)-yl]acetamide] |
| 11500 1/s per M | COc1cc(C)ccc1-c1cc(=O)[nH]c(=S)n1CC(N)=O [Example 418, 2-[6-(2-methoxy-4-methylphenyl)-4-oxo-2-thioxo-3,4-dihydropyrimidin-1(2H)-yl]acetamide] |
| 5210 1/s per M | COc1ccc(-c2cc(=O)[nH]c(=S)n2CC(N)=O)c(OCCO)c1 [Example 420, 2-{6-[2-(2-hydroxyethoxy)-4-methoxyphenyl]-4-oxo-2-thioxo-3,4-dihydropyrimidin-1(2H)-yl}acetamide] |
| 4950 1/s per M | CC(=O)OCCOc1ccc(F)cc1-c1cc(=O)[nH]c(=S)n1CC(N)=O [Example 421, 2-{2-[3-(2-amino-2-oxoethyl)-6-oxo-2-thioxo-1,2,3,6-tetrahydropyrimidin-4-yl]-4-fluorophenoxy}ethyl acetate] |
| 4460 1/s per M | COc1ccc(OCCO)cc1-c1cc(=O)[nH]c(=S)n1CC(N)=O [Example 422, 2-{6-[5-(2-hydroxyethoxy)-2-methoxyphenyl]-4-oxo-2-thioxo-3,4-dihydropyrimidin-1(2H)-yl}acetamide] |
| 3290 1/s per M | COc1cc(OCC(N)=O)ccc1-c1cc(=O)[nH]c(=S)n1CCN [Example 423, 2-{4-[3-(2-aminoethyl)-6-oxo-2-thioxo-1,2,3,6-tetrahydropyrimidin-4-yl]-3-methoxyphenoxy}acetamide] |
| 6870 1/s per M | NCCNC(=O)Cn1c(-c2cc(Cl)ccc2OCCO)cc(=O)[nH]c1=S [Example 424, N-(2-aminoethyl)-2-{6-[5-chloro-2-(2-hydroxyethoxy)phenyl]-4-oxo-2-thioxo-3,4-dihydropyrimidin-1(2H)-yl}acetamide] |
